Test results reported in US9688698B2, “Heteroaromatic compounds and their use as dopamine D1 ligands” (PFIZER INC., priority 2014, dated 2017).
Where a name gives a salt, the structure may show the parent alone.

Biological target: T1, Human D1 Receptor (Homo sapiens, UniProt P21728)
T1 construct: expressed in transfected cells; host or cells: LTK cell line over-expressing the D1 receptor
Test: Human D1 Receptor Binding Assay ([3H]-SCH23390 competition binding)
Details: over-expressing LTK human cell lines; 0.5 nM [3H]-SCH23390; 30 min at 37° C.; footnote a = geometric mean of ≧5 determinations, footnote b = single determination; read-out: Human D1 Receptor Binding, Ki (nM); Geometric mean of 2-4 determinations (unless otherwise indicated)
Method: The affinity of the compounds described herein was determined by competition binding assays similar to those described in Ryman-Rasmussen et al., “Differential activation of adenylate cyclase and receptor internalization by novel dopamine D1 receptor agonists”, Molecular Pharmacology 68(4):1039-1048 (2005).
D1 binding assays were performed using over-expressing LTK human cell lines. […] These ligand and tissue concentrations were used in time course studies to determine linearity and equilibrium conditions for binding. Binding was at equilibrium with the specified amount of tissue in 30 minutes at 37° C. […] The pellet was resuspended in assay buffer [50 mM Tris (pH 7.4@RT) containing 4 mM MgSO4 and 0.5 mM EDTA]. […] Non-specific binding was determined by radioligand binding in the presence of a saturating concentration of (+)-Butaclamol (10 μM), a D1 antagonist. After a 30 minute incubation period at 37° C., assay samples were rapidly filtered through Unifilter-96 GF/B PEI-coated filter plates and rinsed with 50 mM Tris buffer (pH 7.4 at 4° C.). […] The IC50 value (concentration at which 50% inhibition of specific binding occurs) was calculated by linear regression of the concentration-response data in Microsoft Excel. Ki values were calculated according to the Cheng-Prusoff equation: […]

T1 sequence (P21728 whole entry): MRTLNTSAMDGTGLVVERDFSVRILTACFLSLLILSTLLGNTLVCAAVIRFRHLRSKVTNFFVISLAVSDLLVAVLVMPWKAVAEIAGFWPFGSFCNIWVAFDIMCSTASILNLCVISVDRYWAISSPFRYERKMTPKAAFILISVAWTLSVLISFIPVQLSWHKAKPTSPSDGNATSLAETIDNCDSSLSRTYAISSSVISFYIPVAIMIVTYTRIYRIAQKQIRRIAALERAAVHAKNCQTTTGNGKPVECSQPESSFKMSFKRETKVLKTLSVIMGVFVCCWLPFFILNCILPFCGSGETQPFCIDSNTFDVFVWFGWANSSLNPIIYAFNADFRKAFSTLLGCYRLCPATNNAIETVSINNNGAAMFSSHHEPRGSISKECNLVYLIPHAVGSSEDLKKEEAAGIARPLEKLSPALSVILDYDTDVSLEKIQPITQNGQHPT

In the case of Cc1cc(Oc2nccc3ncsc23)ccc1-c1cn[nH]c(=O)c1C [Example 27, 4-methyl-5-[2-methyl-4-([1,3]thiazolo[5,4-c]pyridin-4-yloxy)phenyl]pyridazin-3(2H)-one], the Ki is reported as 186 nM.
For Cc1ncnc(C)c1-c1ccc(Oc2ncnc3ccsc23)cc1C#N [Example 35, 2-(4,6-dimethylpyrimidin-5-yl)-5-(thieno[3,2-d]pyrimidin-4-yloxy)benzonitrile], the Ki was 480 nM.
In the case of Cc1ncnc(C)c1-c1ccc(Oc2ncnc3ccsc23)cc1 [Example 22, 4-[4-(4,6-dimethylpyrimidin-5-yl)phenoxy]thieno[3,2-d]pyrimidine], the Ki is reported as 146 nM.
Molecule Cc1ncnc(C#N)c1-c1ccc(Oc2nccc3ccsc23)cc1F [Example 13, 5-[2-fluoro-4-(thieno[2,3-c]pyridin-7-yloxy)phenyl]-6-methylpyrimidine-4-carbonitrile] has a Ki of 34.5 nM.
For Cc1c(-c2ccc(Oc3ncnc4ccsc34)cc2)n(C)c(=O)[nH]c1=O [Example 68, 1,5-dimethyl-6-[4-(thieno[3,2-d]pyrimidin-4-yloxy)phenyl]pyrimidine-2,4(1H,3H)-dione], the Ki was 15.6 nM.
Work on Cc1n[nH]c(=O)c(C)c1-c1ccc(Oc2nccc3ncsc23)cc1 [Example 28, 4,6-dimethyl-5-[4-([1,3]thiazolo[5,4-c]pyridin-4-yloxy)phenyl]pyridazin-3(2H)-one] yielded a Ki of 25 nM.
Work on Cc1ncnc(C)c1-c1ccc(Oc2nccc3ncsc23)c(F)c1C [Example 66, 4-[4-(4,6-dimethylpyrimidin-5-yl)-2-fluoro-3-methylphenoxy][1,3]thiazolo[5,4-c]pyridine] yielded a Ki of 175 nM.
For Cc1cc(Oc2ncnc3ccsc23)ccc1-c1c(C)c(=O)[nH]c(=O)n1C (single isomer, unassigned) [Example 2, (−)-1,5-dimethyl-6-[2-methyl-4-(thieno[3,2-d]pyrimidin-4-yloxy)phenyl]pyrimidine-2,4(1H,3H)-dione], the Ki was 1.8 nM.
Work on Cc1ncnc(C)c1-c1ccc(Oc2nccc3ccsc23)cc1F [Example 50, 7-[4-(4,6-dimethylpyrimidin-5-yl)-3-fluorophenoxy]thieno[2,3-c]pyridine] yielded a Ki of 6.7 nM.
For Cc1cc(Oc2nccc3ncsc23)ccc1-c1c(C)ncc2nccn12 (single isomer, unassigned; ent-1) [Example 61, 4-[3-methyl-4-(6-methylimidazo[1,2-a]pyrazin-5-yl)phenoxy][1,3]thiazolo[5,4-c]pyridine, ENT-1], the Ki was 151 nM.
Cc1cc(Oc2ncnc3ccsc23)ccc1-c1c(C)c(=O)[nH]c(=O)n1C (single isomer, unassigned) [Example 1, (+)-1,5-dimethyl-6-[2-methyl-4-(thieno[3,2-d]pyrimidin-4-yloxy)phenyl]pyrimidine-2,4(1H,3H)-dione] gave a Ki of 4.1 nM.
For Cc1cnnc(C)c1-c1ccc(Oc2nccc3ccsc23)cc1C#N [Example 43, 2-(3,5-dimethylpyridazin-4-yl)-5-(thieno[2,3-c]pyridin-7-yloxy)benzonitrile, trifluoroacetate salt], the Ki was 46.3 nM.
Work on Cc1cc(Oc2nccc3ccsc23)ccc1-c1c(C)cnnc1C [Example 14, 7-[4-(3,5-dimethylpyridazin-4-yl)-3-methylphenoxy]thieno[2,3-c]pyridine] yielded a Ki of 3.3 nM.
Work on Cc1nc2cnccc2n1-c1ccc(Oc2nccc3ccsc23)cc1 [Example 51, 2-methyl-1-[4-(thieno[2,3-c]pyridin-7-yloxy)phenyl]-1H-imidazo[4,5-c]pyridine, trifluoroacetate salt] yielded a Ki of 89.5 nM.
Cc1cc(Oc2nccc3ncsc23)ccc1-c1c(C)ncnc1C [Example 58, 4-[4-(4,6-dimethylpyrimidin-5-yl)-3-methylphenoxy][1,3]thiazolo[5,4-c]pyridine] showed a Ki of 75.1 nM.
For Cc1cc(Oc2nccc3ncsc23)ccc1-c1c(C)cnnc1C (single isomer, unassigned) [Example 65, (−)-4-[4-(3,5-dimethylpyridazin-4-yl)-3-methylphenoxy][1,3]thiazolo[5,4-c]pyridine], the Ki was 223 nM.
Cc1cc(Oc2nccc3ccsc23)ccc1-c1c(C)ncnc1C#N (single isomer, unassigned; ent-2) [Example 46, 6-methyl-5-[2-methyl-4-(thieno[2,3-c]pyridin-7-yloxy)phenyl]pyrimidine-4-carbonitrile, ENT-2] showed a Ki of 15.1 nM.
Molecule Cc1cc(Oc2nccc3ccoc23)ccc1-c1c(C)ncnc1C [Example 11, 7-[4-(4,6-dimethylpyrimidin-5-yl)-3-methylphenoxy]furo[2,3-c]pyridine] has a Ki of 57.8 nM.
In the case of Cc1cc(Oc2nccc3ccsc23)c(F)cc1-c1c(C)ncnc1C [Example 38, 7-[4-(4,6-dimethylpyrimidin-5-yl)-2-fluoro-5-methylphenoxy]thieno[2,3-c]pyridine], the Ki is reported as 7.9 nM.
In the case of Cc1cc(Oc2nccc3ccsc23)ccc1-n1c(C)nc2cnccc21 [Example 8, 2-methyl-1-[2-methyl-4-(thieno[2,3-c]pyridin-7-yloxy)phenyl]-1H-imidazo[4,5-c]pyridine], the Ki is reported as 13.1 nM.
For COc1cc(Oc2nccc3ncsc23)ccc1-c1c(C)ncnc1C [Example 59, 4-[4-(4,6-dimethylpyrimidin-5-yl)-3-methoxyphenoxy][1,3]thiazolo[5,4-c]pyridine], the Ki was 185 nM.
With Cc1cc(Oc2nccc3ccoc23)ccc1-c1c(C)ncc2nccn12 [Example 9, 5-[4-(furo[2,3-c]pyridin-7-yloxy)-2-methylphenyl]-6-methylimidazo[1,2-a]pyrazine] the Ki was 57.2 nM.
Molecule Cc1cc(Oc2nccc3ncsc23)ccc1-c1c(C)n[nH]c(=O)c1C [Example 26, 4,6-dimethyl-5-[2-methyl-4-([1,3]thiazolo[5,4-c]pyridin-4-yloxy)phenyl]pyridazin-3(2H)-one] has a Ki of 12.2 nM.
Cc1cc(Oc2nccc3cc[nH]c23)ccc1-c1c(C)ncnc1C [Example 12, 7-[4-(4,6-dimethylpyrimidin-5-yl)-3-methylphenoxy]-1H-pyrrolo[2,3-c]pyridine] gave a Ki of 403 nM.
Cc1cc(Oc2nccc3cc[nH]c23)ccc1-c1c(C)n[nH]c(=O)c1C [Example 69, 4,6-dimethyl-5-[2-methyl-4-(1H-pyrrolo[2,3-c]pyridin-7-yloxy)phenyl]pyridazin-3(2H)-one] showed a Ki of 126 nM.
Work on Cc1n[nH]c(=O)c(C)c1-c1ccc(Oc2ncnc3ccsc23)cc1 [Example 67, 4,6-dimethyl-5-[4-(thieno[3,2-d]pyrimidin-4-yloxy)phenyl]pyridazin-3(2H)-one] yielded a Ki of 17.7 nM.
Cc1cnnc(C)c1-c1ccc(Oc2nccc3ncsc23)cc1F [Example 63, 4-[4-(3,5-dimethylpyridazin-4-yl)-3-fluorophenoxy][1,3]thiazolo[5,4-c]pyridine] gave a Ki of 109 nM.
Cc1cc(Oc2nccc3ncsc23)ccc1-c1c(C)cnnc1C [Example 60, 4-[4-(3,5-dimethylpyridazin-4-yl)-3-methylphenoxy][1,3]thiazolo[5,4-c]pyridine] gave a Ki of 65.3 nM.
Molecule Cc1ncnc(C)c1-c1cc(F)c(Oc2ncnc3ccsc23)cc1F [Example 21, 4-[4-(4,6-dimethylpyrimidin-5-yl)-2,5-difluorophenoxy]thieno[3,2-d]pyrimidine] has a Ki of 62.4 nM.
Work on COc1cc(Oc2nccc3ccsc23)ccc1-c1c(C)ncnc1C [Example 48, 7-[4-(4,6-dimethylpyrimidin-5-yl)-3-methoxyphenoxy]thieno[2,3-c]pyridine] yielded a Ki of 13.5 nM.
Cc1cnnc(C)c1-c1ccc(Oc2nccc3ccsc23)cc1F [Example 47, 7-[4-(3,5-dimethylpyridazin-4-yl)-3-fluorophenoxy]thieno[2,3-c]pyridine] gave a Ki of 6.1 nM.
For Cc1ncnc(C)c1-c1ccc(Oc2nccc3ccsc23)cc1C#N [Example 49, 2-(4,6-dimethylpyrimidin-5-yl)-5-(thieno[2,3-c]pyridin-7-yloxy)benzonitrile], the Ki was 16.3 nM.
Cc1cc(Oc2nccc3ncsc23)ccc1-c1c(C)ncc(=O)n1C (single isomer, unassigned) [Example 29, (−)-1,5-dimethyl-6-[2-methyl-4-([1,3]thiazolo[5,4-c]pyridin-4-yloxy)phenyl]pyrazin-2(1H)-one] showed a Ki of 40.6 nM.
Cc1cc(Oc2nccc3ccsc23)ccc1-c1c(C)ncc(=O)n1C [Example 5, 1,5-dimethyl-6-[2-methyl-4-(thieno[2,3-c]pyridin-7-yloxy)phenyl]pyrazin-2(1H)-one] was tested, and the Ki was 1.6 nM.
COc1cc(Oc2nccc3ccsc23)ccc1-c1cccnc1C [Example 44, 7-[3-methoxy-4-(2-methylpyridin-3-yl)phenoxy]thieno[2,3-c]pyridine, trifluoroacetate salt] gave a Ki of 16.4 nM.
Cc1cc(Oc2nccc3ccsc23)ccc1-c1c(C)ncnc1C#N (single isomer, unassigned; ent-1) [Example 45, 6-methyl-5-[2-methyl-4-(thieno[2,3-c]pyridin-7-yloxy)phenyl]pyrimidine-4-carbonitrile, ENT-1] was tested, and the Ki was 14.3 nM.
Cc1cc(Oc2nccc3cnsc23)ccc1-c1c(C)n[nH]c(=O)c1C [Example 3, 4,6-dimethyl-5-[2-methyl-4-([1,2]thiazolo[5,4-c]pyridin-7-yloxy)phenyl]pyridazin-3(2H)-one] showed a Ki of 10.9 nM.
In the case of Cc1ncnc(C)c1-c1ccc(Oc2ncnc3ccsc23)c(F)c1C [Example 20, 4-[4-(4,6-dimethylpyrimidin-5-yl)-2-fluoro-3-methylphenoxy]thieno[3,2-d]pyrimidine], the Ki is reported as 121 nM.
